Assays:
[1] = tested on: back of hairless mice (HR-1), 10 mass % oleic acid applied; test: Inhibiting effect against rough skin induced by oleic acid application (transepidermal water loss); assay type: in vivo; parameters: ΔTEWL value: unit not given here; settings: for ΔTEWL value: three days, average of four animals, rough skin worse as value increases, control 12.0; for ΔTEWL value compared with the control aqueous solution / rough skin preventing/ameliorating effect: summary of Table 3, concentrations as in Table 3
Experimental: In order to investigate the inhibiting effect of α-amino acid derivatives and salts thereof against rough skin induced by oleic acid application, the transepidermal water loss (TEWL value) before and after application was measured, the difference was compared with the control (control aqueous solution), and the effect was determined. Sample preparation and the application method were in accordance with Example 1. The TEWL was determined using the TM210 TEWA Meter (Courage+Khazaka Electronic GmBH).
100 μL of 10 mass % oleic acid (solvent: ethanol) was applied to the back of hairless mice (HR-1, four mice per group). Then a sample solution (α-amino acid derivatives, and the like) was applied 100 μL at a time. This procedure was continued for three days. The following day, the TEWL value of the back was determined and the values of the four animals were averaged. Rough skin became worse as the ΔTEWL value increased.

[2] = tested on: back of a hairless mouse (HR-1), 10 mass % oleic acid applied; test: Parakeratosis-inhibiting effect tests: oleic acid applied to hairless mouse back, macroscopic rough skin evaluation and parakeratosis value; assay type: in vivo; settings: for Macroscopic evaluation (average of four animals): 100 μL after oleic acid, three days, rough skin score 0.0 (no redness) to 2.0 (control); for Parakeratosis value (average of four animals): tape-stripped stratum corneum, hematoxylin, range 1.0 to 3.0, higher = parakeratosis advanced, control 2.0; for parakeratosis value / parakeratosis-inhibiting effect / rough skin preventing effect, based on stratum corneum peeling and redness: summary of Table 1, concentrations as in Table 1
Experimental: Aqueous solutions (containing 30 mass % of ethanol) of primarily 3 mass % of an α-amino acid derivative or salt thereof were prepared as the evaluation sample. The pH was regulated by hydrochloric acid or sodium hydroxide so as to be 7.0 to 7.5. When sample solubility was low, the solution was prepared accordingly.
100 μL of 10 mass % oleic acid solution (solvent: ethanol) were applied to the back of a hairless mouse (HR-1; Hoshino Laboratory Animals). Then the sample solution (α-amino acid derivative, and the like) was applied 100 μL at a time. This procedure was continued for three days. […] The status of the skin was evaluated in 0.25-point intervals, with skin where the control (control aqueous solution) had been applied being 2.0 and skin where there was no redness being 0.0. At the same time, the stratum corneum at the back of the hairless mouse was peeled off with tape, the nuclei were stained by hematoxylin, and the degree of parakeratosis was observed and evaluated by a parakeratosis value within a range of 1.0 to 3.0 (in 0.25 increments).

[3] = tested on: pores of the cheeks of healthy human males; test: Human pore-shrinking effect (replica assessment of cheek pores); assay type: in vivo; settings: for Replica assessment (average of n = 5): twice a day for one month, pore size rating 1-13, after application minus before application, control 0.3; for pore-shrinking effect: summary of Table 2, concentrations as in Table 2
Experimental: An experiment was conducted whereby a sample was applied twice a day for one month to the cheeks of healthy human males in groups of 5 men each. Aqueous solutions (containing 15 mass % of ethanol) of 3 mass % of the α-amino acid derivative or a salt thereof were prepared as the evaluation sample. The pH was regulated by hydrochloric acid or sodium hydroxide so as to be 7.0 to 7.5. When sample solubility was low, the solution was prepared accordingly. The control was an aqueous 15% ethanol solution. The sample aqueous solution and control aqueous solution were applied to one half of the face at a time.
A replica was collected before and after continuous application, and changes in the shape of the pores at the same site were observed using a three-dimensional laser scanning microscope. The size of the pores was macroscopically evaluated in 13 steps of 1 through 13 (with the pores becoming larger as the numbers became larger), the difference in the ratings before and after application (after application-before application) was calculated, and the efficacy of each sample was studied using this difference as the replica assessment.

[4] = tested on: cheek of a panel of 20 women; test: Sensory irritation tests; assay type: in vivo, human; settings: for Evaluation (sensory irritation, class of average rating): 1 mL on cheek, evaluated for ten minutes, 20 women; for sensory irritation: summary of Table 4, β-alanine at 3%
Experimental: 1 mL of a control aqueous solution and the sample aqueous solution prepared in Example 1 were applied using a cotton swab to the left or right cheek, respectively, of a panel of 20 women, the irritating sensation was evaluated every 30 seconds for ten minutes beginning immediately after application, and a final evaluation was reported. The evaluation of the irritating sensation was based on the following four steps of rating criteria, the average rating was calculated, and the average was classified by the following criteria.
3: Discontinued because of extremely strong irritation, such as stinging sensation, burning sensation, tickling sensation, itching, and the like.
2: Intolerable strong irritation, such as stinging sensation, burning sensation, tickling sensation, itching, and the like.
1: Tolerable with only slight stinging sensation, burning sensation, tickling sensation, itching, and the like.
0: Not particularly irritating.
A: average rating of less than 0.2
B: average rating of 0.2 to less than 1.0
C: average rating of 1.0 to less than 2.0
D: average rating of 2.0 or greater

| SMILES | ΔTEWL value ([1]; sample 3 mass %) | ΔTEWL value compared with the control aqueous solution / rough skin preventing/ameliorating effect [1] | Macroscopic evaluation (average of four animals) ([2]; sample 3 mass %) | Parakeratosis value (average of four animals) ([2]; sample 3 mass %) | parakeratosis value / parakeratosis-inhibiting effect [2] | rough skin preventing effect, based on stratum corneum peeling and redness [2] | Replica assessment (average of n = 5) ([3]; sample 3 mass %) | pore-shrinking effect [3] | Evaluation (sensory irritation, class of average rating) ([4]; sample 3 mass %) | sensory irritation [4] | ΔTEWL value ([1]; sample 1.5 mass %) | Macroscopic evaluation (average of four animals) ([2]; sample 1.5 mass %) | Parakeratosis value (average of four animals) ([2]; sample 1.5 mass %) | Replica assessment (average of n = 5) ([3]; sample 1.5 mass %) | Evaluation (sensory irritation, class of average rating) ([4]; sample 1.5 mass %) |
| --- | --- | --- | --- | --- | --- | --- | --- | --- | --- | --- | --- | --- | --- | --- | --- |
| CNC(CO)C(=O)O (racemic) [N-methyl-DL-serine] | 8.0 | significantly lower | 1.2 | 1.2 | reduced | seen | −0.7 | seen | A (average rating of less than 0.2) | no problems |  |  |  |  |  |
| C[C@@H](NS(=O)(=O)c1ccccc1)C(=O)O [N-benzenesulfonyl-D-alanine] |  |  |  |  |  |  |  |  |  |  | 7.0 | 1.3 | 1.4 | −1.2 | A (average rating of less than 0.2) |
| O=C(O)[C@@H](CO)NS(=O)(=O)c1ccccc1 [N-benzenesulfonyl-D-serine] | 6.7 | significantly lower | 1.3 | 1.2 | reduced | seen | −1.1 | seen | A (average rating of less than 0.2) | no problems |  |  |  |  |  |
| C[C@H](NS(=O)(=O)c1ccccc1)C(=O)O [N-benzenesulfonyl-L-alanine] |  | significantly lower |  |  | reduced | seen |  | seen |  | no problems | 7.2 | 1.2 | 1.3 | −0.9 | A (average rating of less than 0.2) |
| O=C(O)[C@H](CO)NS(=O)(=O)c1ccccc1 [N-benzenesulfonyl-L-serine] | 6.8 | significantly lower | 1.2 | 1.2 | reduced | seen | −1.2 | seen | A (average rating of less than 0.2) | no problems |  |  |  |  |  |
| O=C(O)CNS(=O)(=O)c1ccccc1 [N-benzenesulfonyl-glycine] | 6.9 | significantly lower | 1.2 | 1.2 | reduced | seen | −1.3 | seen | A (average rating of less than 0.2) | no problems |  |  |  |  |  |
| C[C@@H](NC(=O)OCc1ccccc1)C(=O)O [N-carbobenzoyloxy-D-alanine] | 7.1 | significantly lower | 1.2 | 1.1 | reduced | seen | −0.8 | seen | A (average rating of less than 0.2) | no problems |  |  |  |  |  |
| O=C(N[C@H](CO)C(=O)O)OCc1ccccc1 [N-carbobenzoyloxy-D-serine] | 6.8 | significantly lower | 1.2 | 1.2 | reduced | seen | −1.3 | seen | A (average rating of less than 0.2) | no problems |  |  |  |  |  |
| C[C@H](NC(=O)OCc1ccccc1)C(=O)O [N-carbobenzoyloxy-L-alanine] | 6.9 | significantly lower | 1.2 | 1.3 | reduced | seen | −0.9 | seen | A (average rating of less than 0.2) | no problems |  |  |  |  |  |
| O=C(N[C@@H](CO)C(=O)O)OCc1ccccc1 [N-carbobenzoyloxy-L-serine] | 6.7 | significantly lower | 1.2 | 1.1 | reduced | seen | −1.2 | seen | A (average rating of less than 0.2) | no problems |  |  |  |  |  |
| C[C@@H](NC1CCCCC1)C(=O)O [N-cyclohexyl-D-alanine] | 6.9 | significantly lower | 1.3 | 1.4 | reduced | seen | −1.3 | seen | A (average rating of less than 0.2) | no problems |  |  |  |  |  |
| O=C(O)[C@@H](CO)NC1CCCCC1 [N-cyclohexyl-D-serine] | 6.8 | significantly lower | 1.3 | 1.2 | reduced | seen | −1.3 | seen | A (average rating of less than 0.2) | no problems |  |  |  |  |  |

Reference: patent US20090215893A1, “Parakeratosis inhibitor, pore-shrinking agent,or rough skin preventing/ameliorating agent, and external composition for skin” (Shiseido Company Ltd, priority 2005, published 2009)
